Data published in patent US6953785B2, “Estra-1,3,5(10)-triene derivatives” (priority 2000, dated 2005).

How the values were obtained:
[1] = molecular target: T1, recombinant human estrone sulfatase (Homo sapiens, UniProt P08842); assay: Estrone sulfatase (steroid sulfatase) inhibition test (Method A), [3H]-estrone sulfate substrate; type: biochemical; conditions: [6,7-3H]-estrone sulfate 6.67 μmol/L, pH 7.5, 37° C., 30 minutes, read-out: Inhibitory Activity against Steroid Sulfatase IC50
T1 sequence (P08842 22-583): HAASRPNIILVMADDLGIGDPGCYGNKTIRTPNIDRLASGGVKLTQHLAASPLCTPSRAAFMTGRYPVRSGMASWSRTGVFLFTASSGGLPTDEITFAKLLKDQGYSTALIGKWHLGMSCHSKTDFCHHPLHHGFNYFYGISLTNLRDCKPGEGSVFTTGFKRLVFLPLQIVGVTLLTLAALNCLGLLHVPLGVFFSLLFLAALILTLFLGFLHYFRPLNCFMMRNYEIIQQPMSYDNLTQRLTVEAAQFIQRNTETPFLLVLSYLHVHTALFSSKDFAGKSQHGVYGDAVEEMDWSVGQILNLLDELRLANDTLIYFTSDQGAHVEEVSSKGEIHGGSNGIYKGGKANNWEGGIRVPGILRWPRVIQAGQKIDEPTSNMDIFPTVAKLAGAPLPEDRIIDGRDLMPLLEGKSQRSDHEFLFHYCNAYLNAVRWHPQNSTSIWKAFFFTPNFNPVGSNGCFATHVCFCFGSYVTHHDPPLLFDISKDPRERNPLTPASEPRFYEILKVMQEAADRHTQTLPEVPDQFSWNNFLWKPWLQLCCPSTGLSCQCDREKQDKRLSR
Procedure: Estrone Sulfatase (Steroid Sulfatase) Inhibition Test (Method A)
[6,7-^3H]-Estrone sulfate (final concentration 6.67 μmol/L; 0.025 μCi/tube), recombinant human estrone sulfatase (33 ng/tube) and an estra-1,3,5(10)-triene derivative of each test concentration (the estra-1,3,5(10)-triene derivative was dissolved in 0.003 mL of DMSO) were added to a phosphate buffer (pH 7.5, final volume 0.15 mL) containing 0.25 mol/L of sucrose and 0.04 mol/L of nicotinamide, and the mixture was subjected to enzymatic reaction at 37° C. for 30 minutes. The recombinant human estrone sulfatase used herein was prepared from CHO (Chinese hamster ovary) cells, which were transfected with a human estrone sulfatase gene, after partial purification. After the enzymatic reaction, toluene (0.5 mL) was added to the reaction mixture followed by stirring, and the mixture was centrifuged at 9000 rpm for 5 minutes. The toluene extract layer was taken out, and the radioactivity of the [^3H]-estrone formed therein was measured with a liquid scintillation counter. The measurement was carried out at one time by duplication, and the assay fluctuation was 10% or less. The enzymatic reaction in the absence of the test compound was also carried out simultaneously. The inhibitory activity against estrone sulfatase of the test compound of each concentration was calculated according to the equation shown below. Inhibitory Activity against Estrone Sulfatase (%)=100−{100×[(A−C)/(B−C)]} wherein; • A: the amount of [^3H]-estrone formed in the presence of the test compound • B: the amount of [^3H]-estrone formed in the absence of the test compound • C: the amount of [^3H]-estrone formed in the absence of both of the recombinant human estrone sulfatase and the test compound.
(§1) The inhibitory activity against estrone sulfatase of the estra-1,3,5(10)-triene derivative tested can be designated by the concentration (IC50) of the derivative that reduces the estrone sulfatase activity to a half of that in the control system not containing the test compound.

[2] = molecular target: T1, recombinant human estrone sulfatase; assay: Estrone sulfatase (steroid sulfatase) inhibition test (Method B), 4-methylumbelliferyl sulfate substrate; type: biochemical; conditions: 4-methylumbelliferyl sulfate 0.3 mmol/L, pH 7.5, 37° C., 1 hour, read-out: Inhibitory Activity against Steroid Sulfatase IC50
Procedure: Estrone Sulfatase (Steroid Sulfatase) Inhibition Test (Method B)
4-Methylumbelliferyl sulfate (final concentration 0.3 mmol/L), recombinant human estrone sulfatase (7.8 ng/well) and an estra-1,3,5(10)-triene derivative of each test concentration (the estra-1,3,5(10)-triene derivative was dissolved in 0.001 mL of DMSO) were added to a phosphate buffer (pH 7.5, final volume 0.1 mL) containing 0.28 mol/L of sucrose and 0.04 mol/L of nicotinamide, and the mixture was subjected to enzymatic reaction at 37° C. for 1 hour. The recombinant human estrone sulfatase used herein was prepared from CHO (Chinese hamster ovary) cells, which were transfected with a human estrone sulfatase gene, after partial purification. After the enzymatic reaction, an aqueous solution of 2 mol/L glycine-sodium hydroxide (pH 10.3, 0.13 mL) was added thereto followed by stirring. Using a fluorescent plate reader (Cyto Fluor II), the fluorescent intensity of 4-methylumbelliferone formed in the system was measured. The measurement was carried out at one time by duplication, and the assay fluctuation was 10% or less. The enzymatic reaction in the absence of the test compound was also carried out simultaneously. The inhibitory activity against estrone sulfatase of the test compound of each concentration was calculated according to the equation shown below. Inhibitory Activity against Estrone Sulfatase (%)=100−[100×(A/B)] wherein; • A: the amount of 4-methylumbelliferone formed in the presence of the test compound, • B: the amount of 4-methylumbelliferone formed in the absence of the test compound.
as §1

Compound	IC50 [1]	IC50 [2]
CC12CCC3c4ccc(OS(N)(=O)=O)cc4CCC3C1CC=C2C(=O)N1CCCC1 (stereo not drawn) [Compound 1]	4.4 nM	
CC12CCC3c4ccc(OS(N)(=O)=O)cc4CCC3C1CC=C2C(=O)N1CCN(c2ccccn2)CC1 (stereo not drawn) [Compound 5]		3.7 nM
C=CCNC(=O)C1=CCC2C3CCc4cc(OS(N)(=O)=O)ccc4C3CCC12C (stereo not drawn) [Compound 10]	5.6 nM	
CC12CCC3c4ccc(OS(N)(=O)=O)cc4CCC3C1CC=C2C(=O)Nc1ccccc1 (stereo not drawn) [Compound 34]	10 nM	
CC12CCC3c4ccc(OS(N)(=O)=O)cc4CCC3C1CC=C2C(=O)NCc1ccc(C(=O)O)cc1 (stereo not drawn) [Compound 37]		6 nM
Cc1cnc(CNC(=O)C2=CCC3C4CCc5cc(OS(N)(=O)=O)ccc5C4CCC23C)cn1 (stereo not drawn) [Compound 49]		24.2 nM
CC12CCC3c4ccc(OS(N)(=O)=O)cc4CCC3C1CC=C2C(=O)NCCCc1ccncc1 (stereo not drawn) [Compound 55]		4.5 nM
CC12CCC3c4ccc(OS(N)(=O)=O)cc4CCC3C1CCC2C(=O)N1CCCC1 (stereo not drawn) [Compound 73]	6 nM	
COCCNC(=O)C1CCC2C3CCc4cc(OS(N)(=O)=O)ccc4C3CCC12C (stereo not drawn) [Compound 76]	15.5 nM	
CCCNC(=O)C=C1CCC2C3CCc4cc(OS(N)(=O)=O)ccc4C3CCC12C (stereo not drawn) [Compound 81]	6.2 nM	
CCOC(=O)CC1CCC2C3CCc4cc(OS(N)(=O)=O)ccc4C3CCC12C (stereo not drawn) [Compound 83]		12 nM
CCCNC(=O)CC1CCC2C3CCc4cc(OS(N)(=O)=O)ccc4C3CCC12C (stereo not drawn) [Compound 85]		10.3 nM
CC12CCC3c4ccc(OS(N)(=O)=O)cc4CCC3C1CCC2CC(=O)N1CCOCC1 (stereo not drawn) [Compound 88]		11 nM
CC12CCC3c4ccc(OS(N)(=O)=O)cc4CCC3C1CC=C2c1cccnc1 (stereo not drawn) [Compound 90]		12 nM
Cc1coc(C2=CCC3C4CCc5cc(OS(N)(=O)=O)ccc5C4CCC23C)n1 (stereo not drawn) [Compound 92]		21 nM

The next lines start with the values.

IC50 [1]	IC50 [2]	Compound
1 nM		CC12CCC3c4ccc(OS(N)(=O)=O)cc4CCC3C1CC=C2C(=O)NC1CCCC1 (stereo not drawn) [Compound 7]
3.6 nM		CC12CCC3c4ccc(OS(N)(=O)=O)cc4CCC3C1CC=C2C(=O)NCC1CC1 (stereo not drawn) [Compound 9]
10 nM		COC(=O)CCCCCNC(=O)C1=CCC2C3CCc4cc(OS(N)(=O)=O)ccc4C3CCC12C (stereo not drawn) [Compound 14]
2.8 nM		COCCNC(=O)C1=CCC2C3CCc4cc(OS(N)(=O)=O)ccc4C3CCC12C (stereo not drawn) [Compound 18]
9.8 nM		CC12CCC3c4ccc(OS(N)(=O)=O)cc4CCC3C1CC=C2C(=O)NCCCCO (stereo not drawn) [Compound 22]
	26 nM	CC(C)(CO)NC(=O)C1=CCC2C3CCc4cc(OS(N)(=O)=O)ccc4C3CCC12C (stereo not drawn) [Compound 23]
4.5 nM		COC(=O)C(NC(=O)C1=CCC2C3CCc4cc(OS(N)(=O)=O)ccc4C3CCC12C)C(C)C (stereo not drawn) [Compound 29]
5.1 nM		COC(=O)C1CCCN1C(=O)C1=CCC2C3CCc4cc(OS(N)(=O)=O)ccc4C3CCC12C (stereo not drawn) [Compound 33]
	3.7 nM	COc1ccc(NC(=O)C2=CCC3C4CCc5cc(OS(N)(=O)=O)ccc5C4CCC23C)cn1 (stereo not drawn) [Compound 39]
9.4 nM		CC12CCC3c4ccc(OS(N)(=O)=O)cc4CCC3C1CC=C2C(=O)Nc1cnccn1 (stereo not drawn) [Compound 40]
	5 nM	COc1ccnc(CNC(=O)C2=CCC3C4CCc5cc(OS(N)(=O)=O)ccc5C4CCC23C)c1 (stereo not drawn) [Compound 47]
	11 nM	CC12CCC3c4ccc(OS(N)(=O)=O)cc4CCC3C1CC=C2C(=O)Nc1ccon1 (stereo not drawn) [Compound 58]
	8.9 nM	CCn1nccc1NC(=O)C1=CCC2C3CCc4cc(OS(N)(=O)=O)ccc4C3CCC12C (stereo not drawn) [Compound 62]
	6 nM	CC12CCC3c4ccc(OS(N)(=O)=O)cc4CCC3C1CC=C2C(=O)NNc1ccccn1 (stereo not drawn) [Compound 69]
	17 nM	COCCOCCOC(=O)C1=CCC2C3CCc4cc(OS(N)(=O)=O)ccc4C3CCC12C (stereo not drawn) [Compound 71]
